From patent US10131652B2, “Pyrimidinyloxy benzene derivatives as herbicides” (E. I. DU PONT DE NEMOURS AND COMPANY, priority 2014, dated 2018)

Columns and labels:
Experiment in all cases: Test F pre-/postemergence plant response
Type in all cases: in vivo
Details in all cases: scale 0 to 100
[1] = system: Italian ryegrass (Lolium multiflorum)
Description: (§1) Seeds of plant species selected from corn (Zea mays), soybean (Glycine max), velvetleaf (Abutilon theophrasti), lambsquarters (Chenopodium album), wild poinsettia (Euphorbia heterophylla), palmer pigweed (Amaranthus palmeri), waterhemp (common waterhemp, Amaranthus rudis), surinam grass (Brachiaria decumbens), large (Lg) crabgrass (Digitaria sanguinalis), Brazilian crabgrass (Digitaria horizontalis), fall panicum (Panicum dichotomiflorum), giant foxtail (Setaria faberii), green foxtail (Setaria viridis), goosegrass (Eleusine indica), johnsongrass (Sorghum halepense), ragweed (common ragweed, Ambrosia elatior), barnyardgrass (Echinochloa crus-galli), sandbur (southern sandbur, Cenchrus echinatus), arrowleaf sida (Sida rhombifolia), Italian ryegrass (Lolium multiflorum), dayflower (Virginia (VA) dayflower, Commelina virginica), field bindweed (Convolvulus arvensis), cocklebur (common cocklebur, Xanthium strumarium), momingglory (Ipomoea coccinea), nightshade (eastern black nightshade, Solanum ptycanthum), kochia (Kochia scoparia), yellow nutsedge (Cyperus esculentus), and hairy beggarticks (Bidens pilosa), were planted into a silt loam soil and treated preemergence with test chemicals formulated in a non-phytotoxic solvent mixture which included a surfactant.
(§2) At the same time, plants from these crop and weed species and also waterhemp_RES1, (ALS & Triazine resistant common waterhemp, Amaranthus rudis), and waterhemp_RES2, (ALS & HPPD resistant common waterhemp, Amaranthus rudis) were treated with postemergence applications of test chemicals formulated in the same manner. Plants ranged in height from 2 to 18 cm for postemergence treatments (1- to 4-leaf stage).
(§3) Treated plants and controls were maintained in a greenhouse for 14 to 21 days, after which time all species were compared to controls and visually evaluated. Plant response ratings, summarized in Table F, are based on a scale of 0 to 100 where 0 is no effect and 100 is complete control. A dash (-) response means no test result.

[2] = system: barnyardgrass (Echinochloa crus-galli)
Description: as §1, §2, §3

[3] = system: dayflower (Virginia (VA) dayflower, Commelina virginica)
Description: as §1, §2, §3

[4] = system: field bindweed (Convolvulus arvensis)
Description: as §1, §2, §3

[5] = system: giant foxtail (Setaria faberii)
Description: as §1, §2, §3

[6] = system: green foxtail (Setaria viridis)
Description: as §1, §2, §3

[7] = system: johnsongrass (Sorghum halepense)
Description: as §1, §2, §3

kochia (Kochia scoparia) = system: kochia (Kochia scoparia)
Description: as §1, §2, §3

[8] = system: lambsquarters (Chenopodium album)
Description: as §1, §2, §3

[9] = system: large (Lg) crabgrass (Digitaria sanguinalis)
Description: as §1, §2, §3

[10] = system: morningglory (Ipomoea coccinea)
Description: as §1, §2, §3

[11] = system: ragweed (common ragweed, Ambrosia elatior)
Description: as §1, §2, §3

soybean (Glycine max) = system: soybean (Glycine max)
Description: as §1, §2, §3

[12] = system: surinam grass (Brachiaria decumbens)
Description: as §1, §2, §3

[13] = system: waterhemp (common waterhemp, Amaranthus rudis)
Description: as §1, §2, §3

[14] = system: wild poinsettia (Euphorbia heterophylla)
Description: as §1, §2, §3

[15] = system: yellow nutsedge (Cyperus esculentus)
Description: as §1, §2, §3

FC(F)c1cc(-c2c(Cl)cccc2Oc2ncc(Cl)cn2)no1 [Compound 179]
90: Plant response rating, Kochia (kochia (Kochia scoparia); 62 g ai/ha Postemergence) | Plant response rating, Soybean (soybean (Glycine max); 125 g ai/ha Postemergence)
95: Plant response rating, Kochia (kochia (Kochia scoparia); 125 g ai/ha Postemergence) | Plant response rating, Waterhemp ([13]; 16 g ai/ha Preemergence) | Plant response rating, Waterhemp ([13]; 31 g ai/ha Postemergence) | Plant response rating, Waterhemp ([13]; 31 g ai/ha Preemergence) | Plant response rating, Waterhemp ([13]; 62 g ai/ha Postemergence)
70: Plant response rating, Kochia (kochia (Kochia scoparia); Preemergence) | Plant response rating, Waterhemp ([13]; 16 g ai/ha Postemergence)
65: Plant response rating, Kochia (kochia (Kochia scoparia); 16 g ai/ha Postemergence)
35: Plant response rating, Dayflower, VA ([3]; 62 g ai/ha Preemergence) | Plant response rating, Field Bindweed ([4]; 62 g ai/ha Postemergence) | Plant response rating, Crabgrass, Large ([9]; 62 g ai/ha Preemergence) | Plant response rating, Morningglory ([10]; Preemergence) | Plant response rating, Soybean (soybean (Glycine max); 125 g ai/ha Preemergence) | Plant response rating, Poinsettia, Wild ([14]; 125 g ai/ha Postemergence)
20: Plant response rating, Foxtail, Giant ([5]; 125 g ai/ha Preemergence) | Plant response rating, Poinsettia, Wild ([14]; 62 g ai/ha Postemergence)
50: Plant response rating, Field Bindweed ([4]; 125 g ai/ha Postemergence) | Plant response rating, Ragweed ([11]; 125 g ai/ha Postemergence) | Plant response rating, Soybean (soybean (Glycine max); 31 g ai/ha Postemergence)
45: Plant response rating, Ragweed ([11]; 16 g ai/ha Postemergence)
0: Plant response rating, Ryegrass, Italian ([1]; 16 g ai/ha Postemergence) | Plant response rating, Ryegrass, Italian ([1]; 16 g ai/ha Preemergence) | Plant response rating, Ryegrass, Italian ([1]; 31 g ai/ha Postemergence) | Plant response rating, Ryegrass, Italian ([1]; 31 g ai/ha Preemergence) | Plant response rating, Ryegrass, Italian ([1]; 62 g ai/ha Postemergence) | Plant response rating, Ryegrass, Italian ([1]; 125 g ai/ha Postemergence) | Plant response rating, Ryegrass, Italian ([1]; Preemergence) | Plant response rating, Barnyardgrass ([2]; 16 g ai/ha Postemergence) | Plant response rating, Barnyardgrass ([2]; 16 g ai/ha Preemergence) | Plant response rating, Barnyardgrass ([2]; 31 g ai/ha Postemergence) | Plant response rating, Barnyardgrass ([2]; 31 g ai/ha Preemergence) | Plant response rating, Barnyardgrass ([2]; 62 g ai/ha Postemergence) | Plant response rating, Barnyardgrass ([2]; 62 g ai/ha Preemergence) | Plant response rating, Barnyardgrass ([2]; 125 g ai/ha Postemergence) | Plant response rating, Dayflower, VA ([3]; 16 g ai/ha Preemergence) | Plant response rating, Dayflower, VA ([3]; 31 g ai/ha Preemergence) | Plant response rating, Field Bindweed ([4]; 16 g ai/ha Preemergence) | Plant response rating, Field Bindweed ([4]; 31 g ai/ha Preemergence) | Plant response rating, Field Bindweed ([4]; 62 g ai/ha Preemergence) | Plant response rating, Field Bindweed ([4]; 125 g ai/ha Preemergence) | Plant response rating, Foxtail, Giant ([5]; 16 g ai/ha Preemergence) | Plant response rating, Foxtail, Giant ([5]; 31 g ai/ha Preemergence) | Plant response rating, Foxtail, Green ([6]; 16 g ai/ha Preemergence) | Plant response rating, Foxtail, Green ([6]; 31 g ai/ha Preemergence) | Plant response rating, Foxtail, Green ([6]; Preemergence) | Plant response rating, Johnsongrass ([7]; 16 g ai/ha Preemergence) | Plant response rating, Johnsongrass ([7]; 31 g ai/ha Preemergence) | Plant response rating, Kochia (kochia (Kochia scoparia); 16 g ai/ha Preemergence) | Plant response rating, Kochia (kochia (Kochia scoparia); 31 g ai/ha Preemergence) | Plant response rating, Crabgrass, Large ([9]; 16 g ai/ha Preemergence) | Plant response rating, Crabgrass, Large ([9]; 31 g ai/ha Preemergence) | Plant response rating, Morningglory ([10]; 16 g ai/ha Preemergence) | Plant response rating, Morningglory ([10]; 31 g ai/ha Preemergence) | Plant response rating, Ragweed ([11]; 16 g ai/ha Preemergence) | Plant response rating, Ragweed ([11]; 31 g ai/ha Preemergence) | Plant response rating, Ragweed ([11]; 125 g ai/ha Preemergence) | Plant response rating, Ragweed ([11]; Preemergence) | Plant response rating, Soybean (soybean (Glycine max); 16 g ai/ha Preemergence) | Plant response rating, Soybean (soybean (Glycine max); 31 g ai/ha Preemergence) | Plant response rating, Soybean (soybean (Glycine max); Preemergence) | Plant response rating, Surinam Grass ([12]; 16 g ai/ha Preemergence) | Plant response rating, Surinam Grass ([12]; 31 g ai/ha Preemergence) | Plant response rating, Surinam Grass ([12]; 125 g ai/ha Preemergence) | Plant response rating, Surinam Grass ([12]; Preemergence) | Plant response rating, Poinsettia, Wild ([14]; 16 g ai/ha Preemergence) | Plant response rating, Poinsettia, Wild ([14]; 31 g ai/ha Preemergence) | Plant response rating, Poinsettia, Wild ([14]; 125 g ai/ha Preemergence) | Plant response rating, Poinsettia, Wild ([14]; Preemergence) | Plant response rating, Nutsedge, Yellow ([15]; 16 g ai/ha Preemergence) | Plant response rating, Nutsedge, Yellow ([15]; 31 g ai/ha Preemergence) | Plant response rating, Nutsedge, Yellow ([15]; 125 g ai/ha Preemergence) | Plant response rating, Nutsedge, Yellow ([15]; Preemergence)
85: Plant response rating, Dayflower, VA ([3]; 125 g ai/ha Preemergence)
15: Plant response rating, Field Bindweed ([4]; 16 g ai/ha Postemergence) | Plant response rating, Foxtail, Green ([6]; 125 g ai/ha Preemergence) | Plant response rating, Poinsettia, Wild ([14]; 16 g ai/ha Postemergence) | Plant response rating, Poinsettia, Wild ([14]; 31 g ai/ha Postemergence)
60: Plant response rating, Crabgrass, Large ([9]; 125 g ai/ha Preemergence) | Plant response rating, Soybean (soybean (Glycine max); 16 g ai/ha Postemergence)
30: Plant response rating, Foxtail, Giant ([5]; 62 g ai/ha Preemergence)
10: Plant response rating, Ryegrass, Italian ([1]; 125 g ai/ha Preemergence) | Plant response rating, Johnsongrass ([7]; 125 g ai/ha Preemergence) | Plant response rating, Johnsongrass ([7]; Preemergence)
98: Plant response rating, Kochia (kochia (Kochia scoparia); 125 g ai/ha Preemergence) | Plant response rating, Lambsquarters ([8]; 16 g ai/ha Preemergence)
100: Plant response rating, Lambsquarters ([8]; 31 g ai/ha Preemergence) | Plant response rating, Lambsquarters ([8]; 125 g ai/ha Preemergence) | Plant response rating, Lambsquarters ([8]; Preemergence) | Plant response rating, Waterhemp ([13]; 125 g ai/ha Postemergence) | Plant response rating, Waterhemp ([13]; 125 g ai/ha Preemergence) | Plant response rating, Waterhemp ([13]; Preemergence)
40: Plant response rating, Ragweed ([11]; 31 g ai/ha Postemergence) | Plant response rating, Ragweed ([11]; 62 g ai/ha Postemergence)
5: Plant response rating, Barnyardgrass ([2]; 125 g ai/ha Preemergence)
75: Plant response rating, Kochia (kochia (Kochia scoparia); 31 g ai/ha Postemergence) | Plant response rating, Soybean (soybean (Glycine max); 62 g ai/ha Postemergence)
25: Plant response rating, Field Bindweed ([4]; 31 g ai/ha Postemergence) | Plant response rating, Morningglory ([10]; 125 g ai/ha Preemergence)
